Reference: patent publication US20240116985A1, “STAPLED PEPTIDES AND METHODS THEREOF” (priority 2020, published 2024)
In brackets after ≈: the same amount, converted by molar mass. Where two headings read alike, the source gives them in different places.

Tests used:
[1] = biological target: T1, full-length beta-Catenin (Uniprot ID P35222) (Homo sapiens, UniProt P35222); assay: Fluorescence polarization IC50 (beta-catenin / 5FAM-TCF4 10-53 competition); assay type: binding
T1 construct: 10 nM full-length beta-Catenin (Uniprot ID P35222)
T1 sequence (P35222 1-781): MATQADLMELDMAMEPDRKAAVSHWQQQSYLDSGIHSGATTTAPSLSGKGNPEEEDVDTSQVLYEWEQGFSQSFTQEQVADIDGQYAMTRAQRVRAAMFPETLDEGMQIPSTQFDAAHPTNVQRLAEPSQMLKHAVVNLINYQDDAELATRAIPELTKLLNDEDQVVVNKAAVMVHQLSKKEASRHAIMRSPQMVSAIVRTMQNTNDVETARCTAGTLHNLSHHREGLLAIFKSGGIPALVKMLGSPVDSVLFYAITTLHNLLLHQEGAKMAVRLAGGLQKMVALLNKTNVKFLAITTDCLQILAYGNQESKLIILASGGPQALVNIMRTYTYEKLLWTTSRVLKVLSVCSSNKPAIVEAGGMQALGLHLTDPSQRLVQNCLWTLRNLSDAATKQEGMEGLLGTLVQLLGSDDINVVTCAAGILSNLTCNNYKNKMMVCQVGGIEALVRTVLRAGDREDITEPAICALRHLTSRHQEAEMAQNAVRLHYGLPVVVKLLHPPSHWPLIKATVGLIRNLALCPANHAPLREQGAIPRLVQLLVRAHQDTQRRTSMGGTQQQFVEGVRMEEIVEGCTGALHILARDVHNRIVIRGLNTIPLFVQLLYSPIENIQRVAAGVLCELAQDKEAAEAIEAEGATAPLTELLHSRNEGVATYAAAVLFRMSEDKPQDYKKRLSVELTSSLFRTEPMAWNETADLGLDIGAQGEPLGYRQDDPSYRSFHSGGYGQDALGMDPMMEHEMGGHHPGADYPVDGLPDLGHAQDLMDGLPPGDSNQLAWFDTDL

CHI Log D procedure = assay type: physicochemical; conditions: for chromatographic logD: pH 7.4, CHI Log D; for CHI Log D: pH 7.4
Solubility in PBS = assay type: physicochemical
In short: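 The PBS solution was ultracentrifuged and the supernatant analyzed by HPLC. Its peak area was divided by that of a 50 μM peptide DMSO reference injection and multiplied by 50 uM to give solubility.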

[2] = fluorescence polarization, read-out: beta-Catenin FP IC50

SMILES | IC50 [1, 2] [nM] | chromatographic logD (CHI Log D procedure) | Solubility (Solubility in PBS; Solubility (uM)) [µM] | IC50 ([1]; read-out: FP EC50) [nM] | CHI Log D (CHI Log D procedure) | Solubility (Solubility in PBS) [µM]
CC[C@H](C)[C@@H]1NC(=O)[C@H](CC(=O)O)NC(=O)[C@]2(CC=CCCCC3(CCCC=CCCCCCC[C@@](C)(C(=O)N[C@@H](Cc4ccccc4)C(=O)N[C@@H](Cc4csc5ccccc45)C(=O)N[C@@H](CCC(N)=O)C(N)=O)NC(=O)[C@H](CCC(N)=O)NC(=O)[C@H](Cc4ccccc4)NC(=O)[C@H](Cc4ccccc4)NC(=O)[C@H](C)NC(=O)[C@H](CCC(=O)O)NC(=O)[C@H](CC(=O)O)NC3=O)NC1=O)CCCN2C(C)=O (stereo partly drawn) [I-660, Ac-PL3-Asp-Ile-B5-Asp-Glu-Ala-Phe-Phe-Gln-S8-Phe-BztA-Gln-NH2] | 544 | 2.75 | 45 (≈ 88.2 µg/mL) | – | – | –
CC[C@H](C)[C@@H]1NC(=O)[C@H](CC(=O)O)NC(=O)[C@]2(CC=CCCCC3(CCCC=CCCCCCC[C@@](C)(C(=O)N[C@@H](Cc4ccccc4)C(=O)N[C@@H](Cc4csc5ccccc45)C(=O)N[C@@H](CCC(N)=O)C(N)=O)NC(=O)[C@H](CCC(N)=O)NC(=O)[C@H](Cc4ccccc4)NC(=O)[C@H](Cc4c[nH]c5ccccc45)NC(=O)[C@H](C)NC(=O)[C@H](CCC(=O)O)NC(=O)[C@H](CC(=O)O)NC3=O)NC1=O)CCCN2C(C)=O (stereo partly drawn) [I-664, Ac-PL3-Asp-Ile-B5-Asp-Glu-Ala-Trp-Phe-Gln-S8-Phe-BztA-Gln-NH2] | 996 | – | – | 996 | 2.433 | 45 (≈ 89.9 µg/mL)
CC[C@H](C)[C@@H]1NC(=O)[C@H](CC(=O)O)NC(=O)[C@]2(CC=CCCCC3(CCCC=CCCCCCC[C@@](C)(C(=O)N[C@@H](Cc4ccccc4)C(=O)N[C@@H](Cc4csc5ccccc45)C(=O)N[C@@H](CCC(N)=O)C(N)=O)NC(=O)[C@H](CCC(N)=O)NC(=O)[C@H](Cc4ccccc4)NC(=O)[C@H](Cc4c[nH]c5ccccc45)NC(=O)[C@H](C)NC(=O)[C@H](CCC(=O)O)NC(=O)[C@H](CC(=O)O)NC3=O)NC1=O)CCCN2C(C)=O (stereo partly drawn) [I-665, Ac-PL3-Asp-Ile-B5-Asp-Glu-Ala-Trp-Phe-Gln-S8-Phe-BztA-Gln-NH2] | 923 | – | – | 923 | 2.448 | 47 (≈ 93.9 µg/mL)
CC[C@H](C)[C@@H]1NC(=O)[C@H](CC(=O)O)NC(=O)[C@]2(CC=CCCCC3(CCCC=CCCCCCC[C@@](C)(C(=O)N[C@@H](Cc4ccsc4)C(=O)N[C@@H](Cc4csc5ccccc45)C(=O)N[C@@H](Cc4c[nH]cn4)C(N)=O)NC(=O)[C@H](CC(N)=O)NC(=O)[C@H](Cc4ccccc4)NC(=O)[C@H](C)NC(=O)[C@H](C)NC(=O)[C@H](CN(CC(=O)O)CC(F)(F)F)NC(=O)[C@H](CC(=O)O)NC3=O)NC1=O)CCCN2C(C)=O (stereo partly drawn) [I-702, Ac-PL3-Asp-Ile-B5-Asp-TfeGA-Ala-Ala-Phe-Asn-S8-3Thi-BztA-His-NH2] | 76 | 2.75 | 40 (≈ 79.3 µg/mL) | – | – | –
CC(=O)N1CCC[C@]12CC=CCCCC1(CCCC=CCCCCCC[C@@](C)(C(=O)N[C@@H](Cc3ccsc3)C(=O)N[C@@H](Cc3csc4ccccc34)C(=O)N[C@@H](Cc3c[nH]cn3)C(N)=O)NC(=O)[C@H](CC(N)=O)NC(=O)[C@H](Cc3ccccc3)NC(=O)[C@H](C)NC(=O)[C@H](C)NC(=O)[C@H](CN(CC(=O)O)CC(F)(F)F)NC(=O)[C@H](CC(=O)O)NC1=O)NC(=O)[C@H](CC(C)(C)C)NC(=O)[C@H](CC(=O)O)NC2=O (stereo partly drawn) [I-705, Ac-PL3-Asp-Npg-B5-Asp-TfeGA-Ala-Ala-Phe-Asn-S8-3Thi-BztA-His-NH2] | 58 | 2.89 | 25 (≈ 49.9 µg/mL) | – | – | –

Continued by falling IC50 [1, 2], values first:

IC50 [1, 2] [nM] | chromatographic logD (CHI Log D procedure) | Solubility (Solubility in PBS; Solubility (uM)) [µM] | IC50 ([1]; read-out: FP EC50) [nM] | CHI Log D (CHI Log D procedure) | Solubility (Solubility in PBS) [µM] | SMILES
57 | 2.99 | 48 (≈ 96.3 µg/mL) | – | – | – | CC(=O)N1CCC[C@]12CC=CCCCC1(CCCC=CCCCCCC[C@@](C)(C(=O)N[C@@H](Cc3ccccc3)C(=O)N[C@@H](Cc3csc4ccccc34)C(=O)N[C@@H](CCC(N)=O)C(N)=O)NC(=O)[C@H](CC(N)=O)NC(=O)[C@H](Cc3ccccc3)NC(=O)[C@H](C)NC(=O)[C@H](C)NC(=O)[C@H](CN(CC(=O)O)CC(F)(F)F)NC(=O)[C@H](CC(=O)O)NC1=O)NC(=O)[C@H](CC1CCCCC1)NC(=O)[C@H](CC(=O)O)NC2=O (stereo partly drawn) [I-706, Ac-PL3-Asp-Cha-B5-Asp-TfeGA-Ala-Ala-Phe-Asn-S8-Phe-BztA-Gln-NH2]
45 | – | – | 45 | 2.099 | 45 (≈ 85.5 µg/mL) | CC[C@H](C)[C@@H]1NC(=O)[C@H](CC(=O)O)NC(=O)[C@]2(CC=CCCCC3(CCCC=CCCCCCC[C@@](C)(C(=O)N[C@@H](Cc4ccccc4)C(=O)N[C@@H](Cc4csc5ccccc45)C(=O)N[C@@H](CCC(N)=O)C(N)=O)NC(=O)[C@H](CCC(N)=O)NC(=O)[C@H](Cc4ccccc4)NC(=O)[C@H](CO)NC(=O)[C@H](C)NC(=O)[C@H](CCC(=O)O)NC(=O)[C@H](CC(=O)O)NC3=O)NC1=O)CCCN2C(C)=O (stereo partly drawn) [I-661, Ac-PL3-Asp-Ile-B5-Asp-Glu-Ala-Ser-Phe-Gln-S8-Phe-BztA-Gln-NH2]
43 | 1.8 | 42 (≈ 81.5 µg/mL) | – | – | – | CC[C@H](C)[C@@H]1NC(=O)[C@H](CC(=O)O)NC(=O)[C@]2(CC=CCCCC3(CCCC=CCCCCCC[C@@](C)(C(=O)N[C@@H](Cc4ccccc4)C(=O)N[C@@H](Cc4csc5ccccc45)C(=O)N[C@@H](CCC(N)=O)C(N)=O)NC(=O)[C@H](CCC(N)=O)NC(=O)[C@H](Cc4ccccc4)NC(=O)[C@H](CCC(N)=O)NC(=O)[C@H](C)NC(=O)[C@H](CCC(=O)O)NC(=O)[C@H](CC(=O)O)NC3=O)NC1=O)CCCN2C(C)=O (stereo partly drawn) [I-663, Ac-PL3-Asp-Ile-B5-Asp-Glu-Ala-Gln-Phe-Gln-S8-Phe-BztA-Gln-NH2]
43 | 2.63 | – | – | – | 50 (≈ 98.3 µg/mL) | CC[C@H](C)[C@@H]1NC(=O)[C@H](CC(=O)O)NC(=O)[C@]2(CC=CCCCC3(CCCC=CCCCCCC[C@@](C)(C(=O)N[C@@H](Cc4ccccc4)C(=O)N[C@@H](Cc4csc5ccccc45)C(=O)N[C@@H](CCC(N)=O)C(N)=O)NC(=O)[C@H](CC(N)=O)NC(=O)[C@H](Cc4ccccc4)NC(=O)[C@H](C)NC(=O)[C@H](C)NC(=O)[C@H](CN(CC(=O)O)CC(F)(F)F)NC(=O)[C@H](CC(=O)O)NC3=O)NC1=O)CCCN2C(C)=O (stereo partly drawn) [I-699, Ac-PL3-Asp-Ile-B5-Asp-TfeGA-Ala-Ala-Phe-Asn-S8-Phe-BztA-Gln-NH2]
41 | – | – | 41 | 2.409 | 47 (≈ 88.8 µg/mL) | CC(=O)N1CCC[C@]12CC=CCCCC1(CCCC=CCCCCCC[C@@](C)(C(=O)N[C@@H](Cc3ccsc3)C(=O)N[C@@H](Cc3csc4ccccc34)C(=O)N[C@@H](CCC(N)=O)C(N)=O)NC(=O)[C@H](CC(N)=O)NC(=O)[C@H](Cc3ccccc3)NC(=O)[C@H](C)NC(=O)[C@H](C)NC(=O)[C@H](CCC(=O)O)NC(=O)[C@H](CC(=O)O)NC1=O)NC(=O)[C@H](CC(C)(C)C)NC(=O)[C@H](CC(=O)O)NC2=O (stereo partly drawn) [I-682, Ac-PL3-Asp-Npg-B5-Asp-Glu-Ala-Ala-Phe-Asn-S8-3Thi-BztA-Gln-NH2]
5 | – | – | – | 2.153 | 43 (≈ 83.5 µg/mL) | CC(=O)N1CCC[C@]12CC=CCCCC1(CCCC=CCCCOC(=O)N3CC[C@@](C(=O)N[C@@H](Cc4ccsc4)C(=O)N[C@@H](Cc4csc5ccccc45)C(=O)N[C@@H](Cc4c[nH]cn4)C(N)=O)(C3)NC(=O)[C@H](CC(N)=O)NC(=O)[C@H](Cc3ccccc3)NC(=O)[C@H](C)NC(=O)[C@H](C)NC(=O)[C@H](CCC(=O)O)NC(=O)[C@H](CC(=O)O)NC1=O)NC(=O)[C@H](CC(C)(C)C)NC(=O)[C@H](CC(=O)O)NC2=O (stereo partly drawn) [I-698, Ac-PL3-Asp-Npg-B5-Asp-Glu-Ala-Ala-Phe-Asn-PyrS2-3Thi-BztA-His-NH2]
